According to EP4744680A1, “TARGETED CHEMICAL DRUG AND PREPARATION METHOD THEREFOR, PHARMACEUTICAL COMPOSITION, AND USE OF TARGETED CHEMICAL DRUG” (Bai Yao Zhi Da (Beijing) Nanobio Technology Co., Ltd., priority 2023, dated 2025):

Assays:
N87 gastric cancer [1] = assay: In vivo antitumor efficacy in an N87 gastric cancer mouse model (drug of Example 1); set-up: species or system mouse (BALB/c nude); conditions: 0.06mg i.v. (tail vein) twice per week for 5 weeks
Method: (1)..Cell culture: Tumor cells were cultured in RPMI-1640 medium supplemented with heat-inactivated 10% fetal bovine serum, 100 U/mL penicillin, 100 µg/mL streptomycin, and 2 mM L-glutamine, in a humidified incubator at 37 °C with 5% CO2.Subculture was performed every 3-4 days after confluence; tumor cells in logarithmic growth phase were used for in vivo inoculation. (2).Tumor cell inoculation and grouping: Tumor cells (1 × 10^7) resuspended in PBS: Matrigel were inoculated subcutaneously into the right flank of each mouse.When tumors reached approximately 80-100 mm^3, animals were randomized into groups for dosing. […] (3).Dosing Regimen: Table 22
The dosing volume is 200 µL per 20 g mouse, with the administered dose calculated on a body-weight basis; the observation period is 60 days, adjustable according to the condition of the animals and tumor status.
• a. Tumor volume: Measured twice weekly using vernier calipers. The long and short diameters were recorded; tumor volume was calculated as: Volume = 0.5 × length × (width)^2. • b. Post-administration reactions in animals: At each tumor-measurement time point, body weight was recorded.Changes in body weight relative to dosing time were documented.Survival and general health (e.g., activity, feeding) were monitored throughout the dosing period. • c. Tumor excision, weighing, and photography: at the end of the study, mice were euthanized; tumors were excised, photographed and collected; specimens were fixed or snap-frozen as required. • a) Photograph each animal post-euthanasia with tumor in situ; • b) Dissect and weigh each subcutaneous tumor; • c) Arrange all tumors on a white board according to group codes and photograph; then bisect longitudinally, realign by group code, and photograph again. • d) Tumors were snap-frozen or formalin-fixed per requirements. • d.
• a. […] Inhibition Rate of Tumor Weight (IRTW, %) IRTW (%) = (Wcontrol group−Wtreatment group)/Wcontrol group × 100, [formula] where W is tumor weight.IRTW > 60% is considered effective.

N87 gastric cancer [2] = assay: In vivo antitumor efficacy in an N87 gastric cancer mouse model (drug of Example 5); set-up: species or system mouse (BALB/c nude); conditions: 0.12mg i.v. (tail vein) once every 5 days, 5 administrations
Method: • 1. Cell culture and preparation: Thaw cells and seed into the corresponding medium (RPMI-1640 basal medium + 10% FBS + 1% penicillin/streptomycin [P/S]).
• a) Discard the culture medium and gently rinse the cells with PBS twice. • b) Add an appropriate volume of 0.25% trypsin, digest in a 37 °C incubator for about 1-2 min until cells visibly round up; then add complete medium (RPMI-1640 + 10% FBS + 1% P/S) to neutralize the trypsin.Gently pipette to detach cells and subculture at the desired split ratio. • c) Split ratio: 1: 2-1: 4; the split ratio used in this experiment is 1: 3. • d) Passage frequency: Every 2-3 days, depending on seeding density and growth.
• a) Harvest cells in logarithmic growth phase (~80-90% confluence recommended); • b) After trypsinization, add complete medium to terminate digestion; collect the suspension into centrifuge tubes and centrifuge at 1, 000 rpm for 5 min; • c) Wash the cell pellet twice with pre-chilled PBS and centrifuge each time; • d) Resuspend the pellet in PBS or serum-free medium to a final concentration of 2 × 10^7 cells/mL.
• Injection site: Subcutaneous, right axillary-dorsal region. • Inoculum: 3 × 10^6 cells/mouse; 30 mice inoculated. • Injection volume: 0.1 mL. • Method: Tumor cell inoculation.
Thaw and expand N87 cells to the required quantity; adjust the cell concentration to 3 × 10^7 cells/mL with sterile PBS and keep on ice until use. Using a single-use sterile 1 mL syringe, draw 0.1 mL of the cell suspension and inject subcutaneously into the right axillary-dorsal region of each mouse. The day of inoculation is designated Day 0 (D0).
• a)lmmediately before injection, thoroughly disperse the tumor cell suspension by pipetting to prevent cell clumping, which can reduce viability; • b)Restrain the mouse by grasping the dorsal neck skin with the thumb and forefinger while holding the tail with the little finger; • c)Using a disposable 1 mL syringe, inject the suspension subcutaneously; advance the needle slightly deeper under the skin (approximately 1 cm) to minimize leakage of the suspension from the needle tract;
Tumor size is measured three times per week using a vernier caliper. The long diameter (a) and the short diameter (b) are recorded. Tumor volume is calculated as: V=0.5×a×b^2.
RTV is calculated as: RTV = Vt/V0, where V0 is the tumor volume at grouping and initial dosing (D0), and Vt is the tumor volume at each measurement time point.
IRTW (%) = (Wcontrol group−Wtreatment group)/Wcontrol group × 100, [formula] where W denotes tumor weight.IRTW%>60% is considered effective.

A549 lung carcinoma = assay: In-vivo efficacy study in the A549 mouse lung carcinoma model (drug of Example 3); set-up: species or system mouse (BALB/c-nu)
Method: • Species/strain: BALB/c nude (BALB/c-nu) • Age: 6-7 weeks • Sex: Male • Body weight: 16-18 g
The day of implantation was designated as Day 0 (D0).When the tumor volume reached approximately 100.0 mm^3 (D5), animals with poor tumor take were excluded, the remaining animals were randomized by tumor volume, and dosing commenced on the day of randomization. 2).Dosing regimen: Table 31
Tumor size is measured twice per week using a vernier caliper. The long diameter (a) and short diameter (b) are recorded. Tumor volume is calculated as: V=0.5×a×b^2.
RTV = Vt /V0 , [formula] where V0 is the tumor volume at grouping/first dosing (D0), and Vt is the tumor volume at each measurement time point.

[3] = Body weight and general condition in the U251 study; assay type: in vivo, mouse (BALB/c nude); conditions: Group 3, around D10 post-dosing; 6mg/Kg i.v. twice weekly; possibly due to drug toxicity
Method: The relationship between body weight change and the dosing regimen is recorded.Survival and health status are also monitored, including activity levels and food intake during the dosing period. • c) Tumor and Organ Imaging: At the end of the dosing period, mice are euthanized, and their brain, heart, liver, spleen, lungs, and kidneys are excised.

[4] = end of the study (D32 or D25), targeted drug: high- and medium-dose

## COc1cccc2c1C(=O)c1c(O)c3c(c(O)c1C2=O)C[C@@](O)(C(=O)CO)C[C@@H]3O[C@H]1C[C@H](N)[C@@H](O)[C@H](C)O1 [Epirubicin drug substance (API), Epirubicin]
N87 gastric cancer [1]; Day 9
  Tumor Growth Inhibition Rate at Different Days Post-Inoculation (%): 8.44%
N87 gastric cancer [1]; Day 13
  Tumor Growth Inhibition Rate at Different Days Post-Inoculation (%): 0.40%
N87 gastric cancer [1]; Day 17
  Tumor Growth Inhibition Rate at Different Days Post-Inoculation (%): 6.68%
N87 gastric cancer [1]; Day 20
  Tumor Growth Inhibition Rate at Different Days Post-Inoculation (%): 7.83%
N87 gastric cancer [1]; Day 23
  Tumor Growth Inhibition Rate at Different Days Post-Inoculation (%): 12.46%
N87 gastric cancer [1]; Day 27
  Tumor Growth Inhibition Rate at Different Days Post-Inoculation (%): 23.34%
N87 gastric cancer [1]; Day 30
  Tumor Growth Inhibition Rate at Different Days Post-Inoculation (%): 25.87%
N87 gastric cancer [1]; Day 34
  Tumor Growth Inhibition Rate at Different Days Post-Inoculation (%): 31.16%
N87 gastric cancer [1]; Day 37
  Tumor Growth Inhibition Rate at Different Days Post-Inoculation (%): 36.26%
N87 gastric cancer [2]; Day 9
  Inhibition rate (%) at different post-inoculation days: 17.5%
N87 gastric cancer [2]; Day 11
  Inhibition rate (%) at different post-inoculation days: 3.5%
N87 gastric cancer [2]; Day 13
  Inhibition rate (%) at different post-inoculation days: 10.2%
N87 gastric cancer [2]; Day 16
  Inhibition rate (%) at different post-inoculation days: 24.1%
N87 gastric cancer [2]; Day 18
  Inhibition rate (%) at different post-inoculation days: 32.9%
N87 gastric cancer [2]; Day 20
  Inhibition rate (%) at different post-inoculation days: 36.4%
N87 gastric cancer [2]; Day 23
  Inhibition rate (%) at different post-inoculation days: 34.6%
N87 gastric cancer [2]; end of study
  Tumor weight: 0.1751 ± 0.13 g
N87 gastric cancer [2]; inhibition rate of tumor weight
  IRTW%: 71.987%
A549 lung carcinoma; Day 8, 0.08mg i.v. (tail vein) twice weekly for 5 weeks
  Tumor growth inhibition rate (TGI, %) at different days post-inoculation: 19.90%
A549 lung carcinoma; Day 8, 0.12mg i.v. (tail vein) twice weekly for 5 weeks
  Tumor growth inhibition rate (TGI, %) at different days post-inoculation: 17.42%
A549 lung carcinoma; Day 8, 0.14mg i.v. (tail vein) twice weekly for 5 weeks
  Tumor growth inhibition rate (TGI, %) at different days post-inoculation: 17.47%
A549 lung carcinoma; Day 11, 0.08mg i.v. (tail vein) twice weekly for 5 weeks
  Tumor growth inhibition rate (TGI, %) at different days post-inoculation: 17.02%
A549 lung carcinoma; Day 11, 0.12mg i.v. (tail vein) twice weekly for 5 weeks
  Tumor growth inhibition rate (TGI, %) at different days post-inoculation: 15.55%
A549 lung carcinoma; Day 11, 0.14mg i.v. (tail vein) twice weekly for 5 weeks
  Tumor growth inhibition rate (TGI, %) at different days post-inoculation: 28.43%
A549 lung carcinoma; Day 14, 0.08mg i.v. (tail vein) twice weekly for 5 weeks
  Tumor growth inhibition rate (TGI, %) at different days post-inoculation: -12.27%
A549 lung carcinoma; Day 14, 0.12mg i.v. (tail vein) twice weekly for 5 weeks
  Tumor growth inhibition rate (TGI, %) at different days post-inoculation: -4.64%
A549 lung carcinoma; Day 14, 0.14mg i.v. (tail vein) twice weekly for 5 weeks
  Tumor growth inhibition rate (TGI, %) at different days post-inoculation: 6.41%
A549 lung carcinoma; Day 17, 0.08mg i.v. (tail vein) twice weekly for 5 weeks
  Tumor growth inhibition rate (TGI, %) at different days post-inoculation: 10.74%
A549 lung carcinoma; Day 17, 0.12mg i.v. (tail vein) twice weekly for 5 weeks
  Tumor growth inhibition rate (TGI, %) at different days post-inoculation: 28.37%
A549 lung carcinoma; Day 17, 0.14mg i.v. (tail vein) twice weekly for 5 weeks
  Tumor growth inhibition rate (TGI, %) at different days post-inoculation: 31.81%
A549 lung carcinoma; Day 22, 0.08mg i.v. (tail vein) twice weekly for 5 weeks
  Tumor growth inhibition rate (TGI, %) at different days post-inoculation: 10.11%
A549 lung carcinoma; Day 22, 0.12mg i.v. (tail vein) twice weekly for 5 weeks
  Tumor growth inhibition rate (TGI, %) at different days post-inoculation: 8.93%
A549 lung carcinoma; Day 22, 0.14mg i.v. (tail vein) twice weekly for 5 weeks
  Tumor growth inhibition rate (TGI, %) at different days post-inoculation: 12.37%
A549 lung carcinoma; Day 25, 0.12mg i.v. (tail vein) twice weekly for 5 weeks
  Tumor growth inhibition rate (TGI, %) at different days post-inoculation: 41.13%
A549 lung carcinoma; Day 25, 0.14mg i.v. (tail vein) twice weekly for 5 weeks
  Tumor growth inhibition rate (TGI, %) at different days post-inoculation: 44.37%
A549 lung carcinoma; Day 29, 0.08mg i.v. (tail vein) twice weekly for 5 weeks
  Tumor growth inhibition rate (TGI, %) at different days post-inoculation: 2.07%
A549 lung carcinoma; Day 29, 0.12mg i.v. (tail vein) twice weekly for 5 weeks
  Tumor growth inhibition rate (TGI, %) at different days post-inoculation: 34.27%
A549 lung carcinoma; Day 29, 0.14mg i.v. (tail vein) twice weekly for 5 weeks
  Tumor growth inhibition rate (TGI, %) at different days post-inoculation: 31.80%
A549 lung carcinoma; Day 32, 0.08mg i.v. (tail vein) twice weekly for 5 weeks
  Tumor growth inhibition rate (TGI, %) at different days post-inoculation: 13.19%
A549 lung carcinoma; Day 32, 0.12mg i.v. (tail vein) twice weekly for 5 weeks
  Tumor growth inhibition rate (TGI, %) at different days post-inoculation: 33.27%
A549 lung carcinoma; Day 32, 0.14mg i.v. (tail vein) twice weekly for 5 weeks
  Tumor growth inhibition rate (TGI, %) at different days post-inoculation: 24.63%
A549 lung carcinoma; [4]
  T/C: greater than 40%
  tumor growth inhibition rate (calculated on the basis of tumor weight and tumor volume): less than 60%
[3]
  body weight of the mice (and spontaneous activity): started to decrease
